Experimental data as given in US8937063B2 (Trustees of Tufts College, priority 2010, dated 2015).

Tests used:
[1] = test system: high fat+fructose (HF/HS) diet hamsters; test: 18-day oral dosing lipid study in HF/HS hamsters; type: in vivo, male Golden Syrian hamsters
Procedure: We examined the effects of diet modulation on the lipid profile of male Syrian Golden hamsters. Hamsters were ordered from Charles River Labs (Wilmington, Mass.), and requested to be 111-120 g in weight (correspondingly 56-61 days old). Hamsters were kept in cages of 4-5 per cage, and maintained on a standard light cycle of 12 hours on/12 hours off. All diets were obtained from Dyets, Inc. (Bethlehem, Pa.). “Normal Diet” was a standard rodent chow, catalog #5001, produced into pellets. Water and this standard chow diet were available to this group of hamsters ad libitum. Food was added to cages as needed, but no less frequently than twice per week. “High Fat Diet” was the same standard rodent chow supplemented with the following: 11.5% corn oil, 11.5% coconut oil, 0.5% cholesterol, and 0.25% deoxycholate. This is also available directly from Dyets, Inc., as catalog #611201. Both diets were ordered in 10 kg batches and stored at 4° C. for durations of the experiments (4-8 weeks), and at −20° C. for longer storage (up to six months). Water and this high fat diet were available to this group of hamsters ad libitum. The “High Fat+Fructose” group was fed the same fat-supplemented chow as the “high fat diet” group (#611201), but water was supplemented with fructose to a final concentration of 10%. Fructose was supplied from Now Foods (catalog #6931) and distributed by Lucky Vitamin (catalog #WB48432). Fructose water was prepared by adding 400 g of fructose to 4 L of water and stirring at room temperature until dissolved. Fructose water was stored at 4° C. until use. When provided to hamsters, fructose water was kept in a water bottle in the hamster cages at room temperature, exactly as standard water was. Fructose water and high fat chow were provided to this group of hamsters ad libitum. All animals remained on their respective diets for 21 days.
To begin this experiment, hamsters were randomly assigned to groups defined by the diet modifications above. After a fixed time, blood was collected from hamsters (N=3-4) to determine the lipid contents of the plasma. Because of limitations in the ability to adequately collect blood from hamsters, all blood samples were obtained via a terminal cardiac puncture preceded by asphyxiation with carbon dioxide. Blood (approximately 2 mL volume) was collected with a 22 G needle into a 5 mL syringe and transferred to a K2EDTA tube. The samples were kept on ice until centrifugation (14,000 rpm for 10 minutes at 4° C.) to separate plasma. Plasma was then aliquoted to tubes for storage at −80° C. until analysis.
Lipid parameters were determined using commercially available kits from Wako USA (Richmond, Va.) according to manufacturer's directions.
Male Golden Syrian hamsters were purchased from Charles River Labs (111-120 g, 56-61 days) and acclimated to a high fat+fructose (herein, referred to as “HF/HS”) diet as described above for two weeks. Hamsters were assigned into cohorts by body weight after two weeks' acclimation to the diet. […] Hamsters were dosed once per day for a total of 18 days. All animals remained on the above-described HF/HS diet throughout the dosing period. Dosing solutions for each cohort were prepared for 7 days at a time, although enough was prepared to last for 8 days. Each solution was stored at room temperature between administrations. Cohorts were defined according to Table 2 below.

[2] = Human clinical trial, single oral doses: serum concentration; type: in vivo; details: serum, ARI-001 2000 mg single oral dose, preliminary, read-out: Cmax, serum
Procedure: Five periods of single dose escalation, with 8 subjects per cohort (6 drug: 2 placebo) involve a total 40 subjects. Appropriately blinded matching placebos are provided. Cohort 1 receives 500 mg of ARI-001 formulated as a single oral tablet, plus eleven placebo tablets; Cohort 2, […] of ARI-001, plus ten placebo tablets; Cohort 3, […] of ARI-001, plus eight placebo tablets; Cohort 4, […] of ARI-001, plus four placebo tablets; Corhort 5, […] of ARI-001. Placebo-only subjects take twelve placebo tablets. Each tablet is a compressed, film-coated tablet suitable for oral administration.
Pharmacokinetic samples are collected at 0-45 min pre-dose and at 0.5, 1, 1.5, 2, 4, 6, 8, 12, 24, 30 and 168 hours after dosing. […]
[…] […] Analysis of all samples is performed at a central laboratory.

high fat-fed hamsters = test: Liver function tests (AST, ALT) in plasma of chronically dosed hamsters; type: in vivo, hamster; details: vs vehicle
Procedure: In order to investigate this, we examined the common liver functional enzymes AST and ALT in the plasma of hamsters from experiment described above in Example 3. These animals were dosed for 18 consecutive days, while being on a HF/HS diet for a total of nearly 5 weeks. We also examined the glucose levels in the plasma of these animals. For pharmacokinetic studies, we utilized wild type mice for both single and repeated administration study. Finally, pharmacokinetic studies were corroborated by data from single and repeated administration to monkeys.
This led to an investigation of liver function tests (AST, ALT) from plasma of hamsters dosed for 18 days with ARI-001. AST and ALT were measured using commercially available kits (Bio-Quant Diagnostic Kits, San Diego, Calif.). As expected, AST and ALT values from untreated hamsters (vehicle group) were very high, as the high fat diet leads to hepatomegaly and fatty liver. This disease state is reflected in the elevated AST and ALT levels.

[3] = ARI-001 2240 mg/kg oral once daily 18 days, plasma, mean ± SD
[4] = ARI-001 2240 mg/kg vs molar equivalent niacin 1200 mg/kg, 18 days

## O=C(O)c1ccc(CCN2CCOCC2)nc1 [ARI-001]
[1]; ARI-001 2240 mg/kg (9.75 mmol/kg) oral gavage once daily 18 days, plasma, mean ± SD
  TC (total cholesterol): 343 ± 104 mg/dL
[1]; ARI-001 2240 mg/kg oral once daily 18 days, mean ± SD
  HDL/TC: 0.48 ± 0.07
[1]; [3]
  FFA (free fatty acids): 0.75 ± 0.15 mEq/L
  HDL: 186 ± 74 mg/dL
  LDL: 114 ± 33 mg/dL
  TG (triglycerides): 138 ± 80 mg/dL
[1]; [4]
  efficacy relative to niacin, LDL cholesterol parameter: at least 1.67 times
  efficacy relative to niacin, total cholesterol parameter: at least 1.54 times
[1]; ARI-001 2240 mg/kg, 18 days
  increase of absolute HDL value compared to vehicle: 33%
[1]; ARI-001 […] (4.88 mmol/kg) oral gavage once daily 18 days, plasma, mean ± SD
  TC (total cholesterol): 653 ± 194 mg/dL
[2]
  Cmax: ~7500 ng/mL
High fat-fed hamsters; 2240 mg/kg oral 18 days
  AST: drastically reduced
High fat-fed hamsters; 1120 and 2240 mg/kg oral 18 days, dose-dependent
  ALT: similarly reduced
